US10987360B2, “Hepatitis B core protein modulators” (Assembly Biosciences, Inc., priority 2016, dated 2021)
Where two headings read alike, the source gives them in different places.

Experiments:
[1] = test system: HBV viral load in AD38 cells; experiment: Viral load production in AD38 cells, quantitative PCR of the core sequence in supernatant; format: cell-based; conditions: 6 days incubation; for activity at 10 µM: Hepatitis B virus, 144 h
Method: (§1) Assay Measuring Activity of Compounds on Viral Production in and on Viability of AD38 Cells
(§2) AD38 cells grown in a 175 cm flask with “Growth Medium” (DMEM/F12 (1:1) (cat #SH30023.01, Hyclone, 1×Pen/step (cat #: 30-002-CL, Mediatech, Inc), 10% FBS (cat #: 101, Tissue Culture Biologics), 250 μg/mL G418 (cat #: 30-234-CR, Mediatech, Inc), 1 μg/mL Tetracycline (cat #: T3325, Teknova)) were detached with 0.25% trypsin. Tetracycline-free “treatment medium” (15 mL DMEM/F12 (1:1) (cat #SH30023.01, Hyclone, 1×Pen/step (cat #: 30-002-CL, Mediatech, Inc), with 2% FBS, Tet-system approved (cat #: 631106, Clontech) were then added to mix and spun at 1300 rpm for 5 min. Pelleted cells were then re-suspended/washed with 50 mL of 1×PBS 2 times and 10 mL Treatment Medium one time. AD38 cells were then re-suspended with 10 mL of Treatment Medium and counted. Wells of a collagen coated 96-well NUNC microtiter plate were seeded at 50,000/well in 180 μL of Treatment Medium, and 20 μL of in treatment media with either 10% DMSO (Control) or a 10× solution of compound in 10% DMSO was added. Plates were incubated for 6 days at 37° C.
Viral load production was assayed by quantitative PCR of the core sequence. Briefly, 5 μL of clarified supernatant was added to a PCR reaction mixture that contained forward primers HBV-f 5′-CTGTGCCTTGGGTGGCTTT-3′, Reverse primers HBV-r 5′-[…]-3′ and Fluorescent TaqMan™ Probes HBV-probe 5′-FAM/AGCTCCAAA/ZEN/[…]/3IABkFQ-3′ in Quanta Biosciences PerfeCTa® qPCR Toughmix®, and was subsequently on an Applied Biosystems VIIA7 in a final volume of 20 μL. The PCR mixture was incubated at 45° C. for 5 minutes, then 95° C. for 10 min, followed by 40 cycles of 10 seconds at 95° C. and 20 seconds at 60° C. Viral load was quantitated against known standards by using ViiA™ 7 Software. Viral load in the supernatant from wells with treated cells were compared against viral load in supernatant from DMSO control wells (≥3 per plate).

[2] = test system: AD38 cells; experiment: Viability of AD38 cells, Promega CellTiter-Glo; format: cell-based; conditions: 6 days incubation, controls being 100%; for AD38 Viability Normalized Result (CPAM/DMSO %) at 10 μM: Table 6, compounds of Group 4
Method: as §1, §2
At the end of compound treatment period cell viability was assessed using a Promega CellTiter-Glo protocol. All supernatant was removed the previously treated 96-well microtiter plate, and 50 μL Tetracycline-free treatment medium (DMEM/F12 (1:1), 1×Pen/step (cat #: 30-002-CL, Mediatech, Inc), with 2% FBS, Tet-system approved (cat #: 631106, Clontech), and 1% DMSO was added back to each well. Another 50 μL of CellTiter-Glo reagent solution (Promega, G7573) was then added at room temperature and the contents mixed for 2 minutes on an orbital shaker to induce cell lysis. This was followed by incubation at room temperature for 10 minutes to stabilize the luminescent signal. The luminescence was recorded for 0.2 seconds per well on a Tecan multimode platereader (Infinite M1000 pro). The luminescent signal from each well was normalized against that of untreated (DMSO) control wells. All results in Tables 3-6 were reported with percent viability (with controls being 100%).

[3] = Table 4, compounds of Group 2, read-out: AD38 Viral Load (%) (VL with cmpd/VL in DMSO control) at 10 μM
[4] = Table 6, compounds of Group 4, read-out: AD38 Viral Load (CpAM/DMSO %) at 10 μM

Compound	activity at 10 µM [1, 3] [%]	AD38 Viability Normalized Result (cmpd/DMSO %) at 10 μM ([2]; Table 4, compounds of Group 2) [%]	other results
CC1=C(C)S(=O)(=O)c2ccc(C(=O)NCc3cnc(-c4ccc(C#N)cc4F)s3)cc2NC1=O [Compound C10-02]	4	95	–
CC1=C(C)S(=O)(=O)c2ccc(C(=O)NCc3cnc(-n4cccn4)s3)cc2NC1=O [Compound C10-04]	1.8	92	–
CC1=C(C)S(=O)(=O)c2ccc(C(=O)NCc3cnc(-c4ccc(OCCCN(C)C)cc4)s3)cc2NC1=O [Compound C10-05]	11.3	90	–
CC1=C(C)C(=O)Nc2cc(C(=O)NCc3cnc(C(F)(F)F)s3)ccc2S1 [Compound C12-01, 2,3-Dimethyl-4-oxo-N-((2-(trifluoromethyl)thiazol-5-yl)methyl)-4,5-dihydrobenzo[b][1,4]thiazepine-7-carboxamide]	15.5	97	–
CC1=C(C)C(=O)Nc2cc(C(=O)NCc3cnc(-c4ccc(C#N)cc4F)s3)ccc2S1 [Compound C12-02]	21.4	99	–
N#Cc1ccc(-c2ncc(CNC(=O)c3ccc4cc[nH]c4c3)s2)c(F)c1 [Compound C13-02, N-((2-(4-cyano-2-fluorophenyl)thiazol-5-yl)methyl)-1H-indole-6-carboxamide]	–	–	activity at 10 µM [1, 4]: 16.1%; AD38 Viability Normalized Result (CPAM/DMSO %) at 10 μM [2]: 105%
Cc1c[nH]c2cc(C(=O)NCc3cnc(C(F)(F)F)s3)ccc12 [Compound C14-01, 3-Methyl-N-((2-(trifluoromethyl)thiazol-5-yl)methyl)-1H-indole-6-carboxamide]	–	–	activity at 10 µM [1, 4]: 63%; AD38 Viability Normalized Result (CPAM/DMSO %) at 10 μM [2]: 113%
N#Cc1ccc(-c2ncc(CNC(=O)c3ccc4c(CC5CCOCC5)c[nH]c4c3)s2)c(F)c1 [Compound C18-02, N-((2-(4-cyano-2-fluorophenyl)thiazol-5-yl)methyl)-3-((tetrahydro-2H-pyran-4-yl)methyl)-1H-indole-6-carboxamide]	–	–	activity at 10 µM [1, 4]: 62.9%; AD38 Viability Normalized Result (CPAM/DMSO %) at 10 μM [2]: 106%
O=C(NCc1cnc(C(F)(F)F)s1)c1ccc2c(C3CCCCC3)c[nH]c2c1 [Compound C19-01, 3-Cyclohexyl-N-((2-(trifluoromethyl)thiazol-5-yl)methyl)-1H-indole-6-carboxamide]	–	–	activity at 10 µM [1, 4]: 30.8%; AD38 Viability Normalized Result (CPAM/DMSO %) at 10 μM [2]: 79%
Cc1[nH]c2cc(C(=O)NCc3cnc(C(F)(F)F)s3)ccc2c1C1CCCCC1 [Compound C20-01, 3-Cyclohexyl-2-methyl-N-((2-(trifluoromethyl)thiazol-5-yl)methyl)-1H-indole-6-carboxamide]	–	–	activity at 10 µM [1, 4]: 45.9%; AD38 Viability Normalized Result (CPAM/DMSO %) at 10 μM [2]: 47%
O=C1CC2CCCCN2c2ccc(C(=O)NCc3cnc(C(F)(F)F)s3)cc2N1 (stereo not shown) [Compound C21-01]	45.9	39	–
N#Cc1ccc(-c2ncc(CNC(=O)c3ccc4c(c3)NC(=O)CC3CCCCN43)s2)c(F)c1 (stereo not shown) [Compound C21-02]	48.9	15	–
Cc1c(C(=O)NCc2cnc(-c3ccc(OCCCN(C)C)cc3)s2)ccc2c1NC(=O)c1ccncc1S2(=O)=O [Compound C22-01]	7.1	92	–
Cc1c(C(=O)NCc2cnc(-n3cccn3)s2)ccc2c1NC(=O)c1ccncc1S2(=O)=O [Compound C22-02]	0.9	85	–
Cc1c(C(=O)NCc2cnc(-c3ccc(C#N)cc3F)s2)ccc2c1NC(=O)c1ccncc1S2(=O)=O [Compound C22-03]	0.5	90	–
N#Cc1ccc(-c2ncc(CNC(=O)c3ccc4c(c3)NC(=O)C3CCCN3S4(=O)=O)s2)c(F)c1 (stereo not shown) [Compound C24-02]	43	100	–
O=C(NCc1cnc(-n2cccn2)s1)c1ccc2c(c1)NC(=O)C1CCCN1S2(=O)=O (stereo not shown) [Compound C24-04]	7.7	104	–
N#Cc1ccc(-c2ncc(CNC(=O)c3ccc4c(c3)NC(=O)C3CCCCN3S4(=O)=O)s2)c(F)c1 (stereo not shown) [Compound C25-02]	0.5	95	–
O=C(NCc1cnc(-n2cccn2)s1)c1ccc2c(c1)NC(=O)C1CCCCN1S2(=O)=O (stereo not shown) [Compound C25-04]	5.4	98	–
O=C1NC2=C(CCN(C(=O)NCc3cnc(-n4cccn4)s3)C2)S(=O)(=O)c2ccccc21 [Compound C43-01, N-((2-(1H-pyrazol-1-yl)thiazol-5-yl)methyl)-10-oxo-3,4,10,11-tetrahydrobenzo[f]pyrido[4,3-b][1,4]thiazepine-2(1H)-carboxamide 5,5-dioxide]	64.4	97	–
CN(C)CCCOc1ccc(-c2ncc(CNC(=O)c3ccc4c(c3)NC(=O)c3ccncc3S4(=O)=O)s2)cc1 [Compound C46-01]	8.5	101	–
O=C(NCc1cnc(-n2cccn2)s1)c1ccc2c(c1)NC(=O)c1ccncc1S2(=O)=O [Compound C46-02]	0.9	102	–
ten-butyl (2-(4-(5-((5,5-dioxido-11-oxo-10,11-dihydrodibenzo[b,f][1,4]thiazepine-8-carboxamido) methyl) thiazol-2-yl) piperidin-1-yl)-2-oxoethyl) (methyl) carbamate [Compound 1035-A]	–	–	AD38 Viral Load (%) (VL with cmpd/VL in DMSO control) at 10 μM ([1]; Table 3, compounds of Group 1): 57.8%; AD38 Viability Normalized Result (cmpd/DMSO %) at 10 μM ([2]; Table 3, compounds of Group 1): 102%
